Experimental data reported in ChEMBL document CHEMBL1201862, “PubChem BioAssay data set” (2004).
Calls of active or inactive are those of the source.

Key:
[1] = molecular target: Nucleotide-binding oligomerization domain-containing protein 2 (Homo sapiens, UniProt Q9HC29); test: PubChem AID 2334; type: functional
[2] = molecular target: Tumor necrosis factor (Homo sapiens, UniProt P01375); test: TNFa-triggered NF-kB activation inhibitors, SAR follow-up, cell-based, revised (AID 2337); type: functional
[3] = test system: HEK293; test: cells; conditions: Homo sapiens;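 further: cells exposed to compound for 14 hours overnight before viability readout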
[4] = molecular target: T1, Nucleotide-binding oligomerization domain-containing protein 1 (Homo sapiens, UniProt Q9Y239); test: NOD1 signaling inhibitors, SAR follow-up, revised (AID 2333); type: functional
T1 sequence (Q9Y239 whole entry): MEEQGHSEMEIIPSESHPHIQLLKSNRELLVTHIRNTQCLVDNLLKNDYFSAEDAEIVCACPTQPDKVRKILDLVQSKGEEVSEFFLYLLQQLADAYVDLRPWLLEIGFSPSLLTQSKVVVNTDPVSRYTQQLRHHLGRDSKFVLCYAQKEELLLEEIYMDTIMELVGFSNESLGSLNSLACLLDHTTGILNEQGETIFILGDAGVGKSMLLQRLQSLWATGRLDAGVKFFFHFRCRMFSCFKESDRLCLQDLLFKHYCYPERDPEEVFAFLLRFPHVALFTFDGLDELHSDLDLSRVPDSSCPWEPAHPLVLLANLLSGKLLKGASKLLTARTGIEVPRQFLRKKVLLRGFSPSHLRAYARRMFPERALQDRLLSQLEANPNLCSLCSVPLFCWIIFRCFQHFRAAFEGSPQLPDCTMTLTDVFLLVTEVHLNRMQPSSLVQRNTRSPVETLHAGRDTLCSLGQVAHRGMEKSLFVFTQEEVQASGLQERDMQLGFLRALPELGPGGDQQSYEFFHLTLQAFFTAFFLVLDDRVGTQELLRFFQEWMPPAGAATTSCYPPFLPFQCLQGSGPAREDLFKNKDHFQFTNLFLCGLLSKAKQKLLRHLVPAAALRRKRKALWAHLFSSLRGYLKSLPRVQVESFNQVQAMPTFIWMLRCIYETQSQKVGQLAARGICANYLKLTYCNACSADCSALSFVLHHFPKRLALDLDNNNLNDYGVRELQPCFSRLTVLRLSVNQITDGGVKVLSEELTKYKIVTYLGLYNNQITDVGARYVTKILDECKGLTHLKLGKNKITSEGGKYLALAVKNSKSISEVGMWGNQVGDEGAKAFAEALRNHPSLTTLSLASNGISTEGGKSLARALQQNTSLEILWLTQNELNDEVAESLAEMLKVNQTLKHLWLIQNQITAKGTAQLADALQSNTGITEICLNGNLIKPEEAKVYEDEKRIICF

[5] = molecular target: T2, Zinc finger protein mex-5 (Caenorhabditis elegans, UniProt Q9XUB2); test: MEX-5/TCR-2 RNA interaction inhibitors, dose response, biochemical, C. elegans, fluorescence polarization (AID 1960)
T2 sequence (Q9XUB2 whole entry): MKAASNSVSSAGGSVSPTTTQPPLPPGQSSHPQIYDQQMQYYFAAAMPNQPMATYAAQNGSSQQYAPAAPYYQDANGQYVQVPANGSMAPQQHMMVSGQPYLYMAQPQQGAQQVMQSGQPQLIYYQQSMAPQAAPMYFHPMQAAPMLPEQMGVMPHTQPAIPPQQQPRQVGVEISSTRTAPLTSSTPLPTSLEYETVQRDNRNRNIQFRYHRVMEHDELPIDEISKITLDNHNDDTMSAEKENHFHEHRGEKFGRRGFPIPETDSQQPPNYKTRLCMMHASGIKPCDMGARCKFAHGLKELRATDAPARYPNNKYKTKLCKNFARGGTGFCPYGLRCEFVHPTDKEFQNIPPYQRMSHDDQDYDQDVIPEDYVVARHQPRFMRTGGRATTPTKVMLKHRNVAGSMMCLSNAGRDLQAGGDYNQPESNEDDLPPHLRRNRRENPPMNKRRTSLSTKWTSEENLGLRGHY

[6] = molecular target: T3, RNA-binding protein pos-1 (Caenorhabditis elegans, UniProt G5EF15); test: inhibitors of POS-1/mex-3 RNA binding, dose response, biochemical, fluorescence polarization (AID 1964);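 further: purified POS-1 fused to maltose binding protein made in E. coli; potency of compounds blocking POS-1 binding to fluorescent RNA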
T3 sequence (G5EF15 whole entry): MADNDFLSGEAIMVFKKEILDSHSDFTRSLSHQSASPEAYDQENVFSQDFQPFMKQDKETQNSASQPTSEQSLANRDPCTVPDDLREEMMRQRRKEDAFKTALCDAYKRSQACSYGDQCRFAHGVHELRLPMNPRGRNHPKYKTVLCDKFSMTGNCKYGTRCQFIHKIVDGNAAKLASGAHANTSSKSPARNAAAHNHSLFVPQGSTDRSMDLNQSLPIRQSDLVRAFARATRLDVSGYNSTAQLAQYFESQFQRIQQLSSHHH

[7] = molecular target: Troponin, cardiac muscle (Homo sapiens, UniProt P19429+P45379+P63316); test: Fluorescence-based biochemical high throughput dose response assay for activators of the calcium sensitivity of cardiac Regulated Thin Filaments (RTF). [Related pubchem assays (depositor defined):AID493008, AID493018, AID504382, AID504383]; type: protein-complex assay
[8] = test system: Vero; test: cells; type: functional, cell-based; conditions: Chlorocebus sabaeus
[9] = HEp-2 cell cytotoxicity, dose response, cytotoxicity control for RSV inhibitor project, HTS (AID 2410); type: functional; conditions: human respiratory syncytial virus
[10] = test system: Vero; test: cells; type: functional; conditions: Chlorocebus sabaeus
[11] = Luminescence Cell-Based Dose Response HTS to Identify Activators of Luciferase Translation or Activity in H4 […] Cells. [Related pubchem assays: 1829 (Project Summary), 1814 (Primary HTS)]; type: functional
[12] = test system: H4; test: Luminescence Cell-Based Dose Response HTS to Identify Activators of 5'UTR Stem-Loop Driven Prion Protein mRNA Translation in H4 Neuroglioblastoma Cells. [Related pubchem assays: 1829 (Project Summary), 1814 (Primary HTS)]; type: functional; conditions: Homo sapiens
[13] = test system: HeLa; test: HeLa cell cytotoxicity, dose response, cytotoxicity control for MITF activator project, CellTiter-Glo luminescence, cherry-pick samples (AID 540259); type: functional, cell-based; conditions: Homo sapiens
[14] = molecular target: DNA damage-inducible transcript 3 protein (Mus musculus, UniProt P35639); type: functional, Cricetulus griseus
[15] = molecular target: T4, X-box-binding protein 1 (Homo sapiens, UniProt P17861); type: functional, Cricetulus griseus;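 further: confirmatory dose-response counter-screen serving a CHOP assay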
T4 sequence (P17861 whole entry): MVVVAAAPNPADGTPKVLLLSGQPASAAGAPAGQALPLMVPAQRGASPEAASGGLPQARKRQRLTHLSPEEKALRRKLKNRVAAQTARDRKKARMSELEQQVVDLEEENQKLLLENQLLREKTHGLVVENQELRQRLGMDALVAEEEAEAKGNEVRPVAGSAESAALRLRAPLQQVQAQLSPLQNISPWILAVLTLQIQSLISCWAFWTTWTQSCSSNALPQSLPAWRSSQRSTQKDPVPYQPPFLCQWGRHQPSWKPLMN

[16] = molecular target: T5, Microphthalmia-associated transcription factor (Homo sapiens, UniProt O75030); test: TRPM1 promoter luciferase signal decrease, dose response, MITF inhibitor project, cell-based, SK-MEL-5, cherry-picked, set 3 (AID 493073); type: functional
T5 sequence (O75030 whole entry): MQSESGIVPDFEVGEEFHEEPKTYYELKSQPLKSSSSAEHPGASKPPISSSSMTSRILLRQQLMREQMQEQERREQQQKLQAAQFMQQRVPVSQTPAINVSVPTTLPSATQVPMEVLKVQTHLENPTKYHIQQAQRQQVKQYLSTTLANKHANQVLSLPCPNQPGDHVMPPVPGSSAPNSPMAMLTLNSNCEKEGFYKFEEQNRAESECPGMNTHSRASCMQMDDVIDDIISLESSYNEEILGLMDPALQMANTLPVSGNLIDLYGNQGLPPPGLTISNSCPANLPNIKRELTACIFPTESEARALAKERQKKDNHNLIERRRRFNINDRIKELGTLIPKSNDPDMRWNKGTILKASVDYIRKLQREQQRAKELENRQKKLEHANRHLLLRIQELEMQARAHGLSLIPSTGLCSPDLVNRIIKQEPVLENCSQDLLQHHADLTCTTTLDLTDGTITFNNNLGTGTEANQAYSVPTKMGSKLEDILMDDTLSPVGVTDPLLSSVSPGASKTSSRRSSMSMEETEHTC

[17] = test system: A-375; test: A375 melanoma cell viability reduction, dose response, counter-screen for MITF modulator project, cherry-pick samples, set 2 (AID 540335); type: functional, cell-based; conditions: Homo sapiens
[18] = inhibitors of intracellular T. cruzi replication, confirmation, NIH3T3 host cells, beta-gal luminescence (AID 2044); type: functional, cell-based;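 further: intracellular parasites grown in NIH/3T3 mouse fibroblasts as host cells; luminescent beta-galactosidase reporter signal from transgenic T. cruzi replicating inside host cells; inhibitors lower the luminescence signal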
[19] = molecular target: Dual specificity protein kinase CLK1 (Homo sapiens, UniProt P49759); test: CLK1 kinase inhibitors, off-target check, dose response, selectivity assay for Dyrk1A inhibitor project, biochemical, cherry-picked samples (AID 588811)
[20] = cytotoxicity toward NIH3T3 fibroblasts, dose response, counter-screen, cell-based, ATP luminescence, mouse fibroblasts (AID 2010); type: functional;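 further: cells exposed to compound for about 90 hours before reading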
[21] = molecular target: Dual specificity tyrosine-phosphorylation-regulated kinase 1A (Rattus norvegicus, UniProt Q63470); type: biochemical, Homo sapiens
[22] = molecular target: T6, Mannose-6-phosphate isomerase (Homo sapiens, UniProt P34949); test: human PMI inhibitors, high substrate, primary screen, biochemical, fluorescence intensity, high mannose 6-phosphate (AID 1220)
T6 sequence (P34949 whole entry): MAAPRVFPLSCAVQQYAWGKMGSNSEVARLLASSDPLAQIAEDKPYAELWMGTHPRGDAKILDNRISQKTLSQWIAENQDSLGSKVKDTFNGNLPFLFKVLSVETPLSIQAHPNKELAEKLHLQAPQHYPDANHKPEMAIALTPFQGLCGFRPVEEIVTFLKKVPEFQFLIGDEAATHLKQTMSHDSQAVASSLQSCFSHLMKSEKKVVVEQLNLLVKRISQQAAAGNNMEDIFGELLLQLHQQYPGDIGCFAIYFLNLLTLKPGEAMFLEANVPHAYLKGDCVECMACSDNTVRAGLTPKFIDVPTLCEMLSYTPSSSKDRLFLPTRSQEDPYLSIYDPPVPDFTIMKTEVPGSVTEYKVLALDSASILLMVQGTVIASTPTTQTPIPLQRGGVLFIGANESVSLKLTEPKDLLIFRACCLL

O=C(NC1CCCc2c1cnn2-c1ccccc1F)c1cc(-c2ccccc2)n[nH]1 (centres undefined)
IC50 [1]: > 20 µM (inactive) | IC50 [2]: 10.7 µM (active) | IC50 [3]: > 20 µM (inactive) | IC50 [4]: 16.9 µM (active)

CN(C)CCN(C)Cc1c2ccccc2c(CN(C)CCN(C)C)c2ccccc12
EC50 [5]: 10.2 µM (active) | EC50 [6]: 12.1 µM (active) | EC50 [7]: 34.3 µM (inactive)

Cc1csc(NC(=O)Cc2coc3cc(C)c(C(C)C)cc23)n1
IC50 [8]: 9.7 µM (active) | CC50 [9]: 6.08 µM (active) | CC50 [10]: 23 µM (active)

Cc1cc2c([nH]c3ccccc32)c2c1OC(C)(C)C=C2 [GRINIMIBINE]
EC50 [11]: 27.7 µM (active) | EC50 [12]: 20.6 µM (active) | AC50 [13]: 41.3 µM (active) | Absolute IC50 (CHOP) [14]: 10 µM | Absolute IC50 (XBP1) [15]: 10 µM

CCOc1c(Br)cc(CNC2CCCCCCC2)cc1OC
AC50 [16]: 20.5 µM (active) | AC50 [17]: 21.9 µM (active)

O=C(O)COc1ccc(/C=C/c2nc3ccc([N+](=O)[O-])cc3s2)cc1
EC50 [18]: > 60 µM (not active) | AC50 [19]: 0.4 µM (active) | EC50 [20]: > 60 µM (not active) | AC50 [21]: 0.348 µM (active)

O=C(NC1CCCc2c1cnn2-c1ccccc1F)c1ccnn1-c1ccccc1 (centres undefined)
IC50 [1]: > 20 µM (inactive) | IC50 [2]: > 20 µM (inactive) | IC50 [3]: > 20 µM (inactive) | IC50 [4]: > 20 µM (inactive)

COc1ccc(NC(S)=Nc2cccc3cnccc23)cc1
IC50 [22]: > 50 µM (not active) | AC50 [21]: 7.84 µM (active)

Cc1n[nH]c(NC=C2C(=O)CC(c3ccco3)CC2=O)c1-c1ccc(Cl)cc1 (centres undefined)
Absolute IC50 (CHOP) [14]: 10 µM | Absolute IC50 (XBP1) [15]: 10 µM

c1csc(CCNc2ncnc3ccc(-c4ccc5c(c4)OCO5)cc23)c1
AC50 [19]: < 0.00195 µM (active)

CC(NC(=O)c1ccc([N+](=O)[O-])o1)C1CC2CCC1C2 (centres undefined)
IC50 [8]: > 25 µM (active) | CC50 [10]: 19.9 µM (active)

O=C(NCc1ccc(Cl)cc1)C1CCN(c2cnccn2)CC1
EC50 [7]: > 71.4 µM (inactive)

c1cncc(CNc2ccnc(-c3ccc4[nH]ncc4c3)n2)c1
AC50 [19]: 0.385 µM (active)
